Consider three molecules from US20240238304A1, “Small Molecule Degraders of DOT1L and Uses Thereof” (Northwestern University, priority 2022, published 2024).

Assay [1] has as its target T1, DOT1L (Homo sapiens, UniProt Q8TEK3).
T1 construct: nuclear protein was extracted using NE-PER Nuclear and Cytoplasmic Extraction Reagents; endogenous in cells; host or cells: LNCaP
Nature of the assay: Screening of PROTAC degraders of DOT1L: western blotting of nuclear extract. The assay is classed as cell-based. To be noted: 1 μM, 48 h (2 days) treatment, LNCaP cell line, Lamin B loading control. The procedure:
LNCaP cells were cultured in complete RPMI1640 media. 70-80% confluent of cells were treated with 1 μM PROTAC degraders of DOT1L (Group A-D), 1 μM parent compound 534, 1 μM EPZ5676, and DMSO (Vehicle) for 48 h. Then, nuclear protein was extracted using NE-PER Nuclear and Cytoplasmic Extraction Reagents (Thermo Scientific 78833) followed by western blotting. Protein band intensity was measured by Image J.
(§1) Nuclear protein extracts were separated by Bolt™ 4-12% Bis-Tris Plus Gels (Invitrogen) and transferred to PVDF membranes by wet transfer. The membranes were blocked with 5% Blotting-Grade Blocker (Bio-Rad) in Tris-buffered saline with 0.5% Tween 20 (TBST) for 1 h at room temperature, and then incubated overnight at 4° C. in blocking buffer with primary antibody including rabbit DOT1L (D1W4Z) mAb1:3000 (CellSignalingTechnology, Cat #77087) and goat lamin B(C-20) pAb 1:1000 (Santa Cruz Biotechnology, Cat #sc-6216). After incubation with HRP-conjugated goat anti-rabbit secondary antibody 1:10,000 (Bio-Rad, Cat #170-6515) or HRP-conjugated donkey anti-goat secondary antibody 1:3000 (Santa Cruz Biotechnology, Cat #sc-2020) for 1 h, the membranes were detected using Super Signal West Femto (Thermo Fisher Scientific, Cat #34096).
Background: Immunoblotting shows a protein as a band on a membrane.

The target in assay [2] is T1, DOT1L. Kind of assay: Time-course analysis of DOT1L degradation: western blotting of nuclear extract. Particulars: 1 μM, multiple time points 1 h to 72 h, LNCaP cell line, nuclear extraction. The assay is classed as cell-based. The procedure:
LNCaP cells were culturedincompleteRPMIl640 media. 70-80% confluent of cells were treated with 1 μM 705 (Group D), 1 μM 588 (Group A), 1 μM 593 (Group C), 1uM 534 (parent), 1 μM EPZ5676, and DMSO for 1 h, 2 h, 6 h, 24 h, 48 h, and 72 h. Then, nuclear protein was extracted using NE-PER Nuclear and Cytoplasmic Extraction Reagents (Thermo Scientific 78833) followed by western blotting. Protein band intensity was measured by Image J.
as §1

T1 sequence (Q8TEK3 whole entry): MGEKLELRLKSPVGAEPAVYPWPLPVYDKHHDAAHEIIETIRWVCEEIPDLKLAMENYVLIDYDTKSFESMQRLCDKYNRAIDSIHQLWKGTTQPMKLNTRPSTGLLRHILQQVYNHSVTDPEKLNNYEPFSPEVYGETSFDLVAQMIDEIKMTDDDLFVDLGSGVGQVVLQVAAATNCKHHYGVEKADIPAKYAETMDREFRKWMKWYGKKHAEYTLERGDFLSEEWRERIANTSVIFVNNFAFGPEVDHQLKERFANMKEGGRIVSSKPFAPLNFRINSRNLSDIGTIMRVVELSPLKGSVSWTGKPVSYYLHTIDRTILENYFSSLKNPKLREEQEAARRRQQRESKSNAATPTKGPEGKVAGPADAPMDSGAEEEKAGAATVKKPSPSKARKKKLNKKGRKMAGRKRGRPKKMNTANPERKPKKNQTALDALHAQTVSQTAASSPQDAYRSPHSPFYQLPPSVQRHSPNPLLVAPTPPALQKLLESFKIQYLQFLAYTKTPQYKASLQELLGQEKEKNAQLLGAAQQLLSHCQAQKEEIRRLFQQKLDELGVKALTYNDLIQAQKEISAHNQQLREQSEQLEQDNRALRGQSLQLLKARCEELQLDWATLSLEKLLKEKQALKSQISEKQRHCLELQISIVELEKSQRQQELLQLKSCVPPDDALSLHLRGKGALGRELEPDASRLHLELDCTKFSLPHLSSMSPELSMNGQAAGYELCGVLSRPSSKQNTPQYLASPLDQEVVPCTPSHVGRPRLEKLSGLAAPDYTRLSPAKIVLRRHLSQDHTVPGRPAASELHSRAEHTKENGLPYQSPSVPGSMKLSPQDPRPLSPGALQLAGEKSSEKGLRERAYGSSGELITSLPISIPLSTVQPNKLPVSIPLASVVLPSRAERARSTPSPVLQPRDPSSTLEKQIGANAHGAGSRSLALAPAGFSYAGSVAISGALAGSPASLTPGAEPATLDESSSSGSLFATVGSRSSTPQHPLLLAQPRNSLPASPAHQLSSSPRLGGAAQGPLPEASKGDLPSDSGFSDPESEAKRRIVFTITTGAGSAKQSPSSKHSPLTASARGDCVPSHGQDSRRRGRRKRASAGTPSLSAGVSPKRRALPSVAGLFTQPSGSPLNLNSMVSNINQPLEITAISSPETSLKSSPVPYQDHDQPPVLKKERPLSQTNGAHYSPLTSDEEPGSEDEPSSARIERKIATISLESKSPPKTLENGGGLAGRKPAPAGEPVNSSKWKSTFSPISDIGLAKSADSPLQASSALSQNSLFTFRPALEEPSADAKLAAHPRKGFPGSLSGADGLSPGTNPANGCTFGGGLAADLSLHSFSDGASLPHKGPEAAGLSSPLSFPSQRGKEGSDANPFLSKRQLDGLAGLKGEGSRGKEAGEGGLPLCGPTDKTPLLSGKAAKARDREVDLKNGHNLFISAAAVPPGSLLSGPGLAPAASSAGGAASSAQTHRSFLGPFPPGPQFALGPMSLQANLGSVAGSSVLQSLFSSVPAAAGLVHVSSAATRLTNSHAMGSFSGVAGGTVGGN

In the case of `COc1nc(Nc2cc(S(C)(=O)=O)ccc2N[C@@H](c2cccc3c2OC(F)(F)O3)c2ncccc2Cl)nc(N2CCNCC2)n1` [Compound 534], the “DOT1L degradation (western blot, nuclear extraction)” value on DOT1L [1] is recorded as “didn't degrade DOT1L protein”. Besides, the “DOT1L degradation over time (order of degradation)” value (shortened to “DOT1L degradation over time”) at DOT1L [2] is “didn't degrade DOT1L until 72 h”.

Consider `COc1nc(Nc2cc(S(C)(=O)=O)ccc2N[C@@H](c2cccc3c2OC(F)(F)O3)c2ncccc2Cl)nc(N2CCN(CCOCCNC(=O)COc3cccc4c3C(=O)N(C3CCC(=O)NC3=O)C4=O)CC2)n1` (stereo partly drawn) [Compound 588], for which the “DOT1L degradation (western blot, nuclear extraction)” value at DOT1L [1] was “accelerated the most DOT1L degradation”. The “DOT1L degradation over time” value at DOT1L [2] is on record as “degraded DOT1L protein in this order”.

For the molecule `CC(C)N(C[C@H]1O[C@@H](n2cnc3c(N)ncnc32)[C@H](O)[C@@H]1O)[C@H]1C[C@@H](CCc2nc3cc(C(C)(C)C)ccc3[nH]2)C1` [EPZ5676, reference compound], at DOT1L [1], the “DOT1L degradation (western blot, nuclear extraction)” value was “didn't degrade DOT1L protein”. At DOT1L [2], the “DOT1L degradation over time” value is reported as “didn't degrade DOT1L until 72 h”.
